According to PMC12597212, “Biaryl Phosphate‐Based Inhibitors of the Transcription Factor STAT4” (Chemmedchem, 2025):

Key:
Format in all cases: binding
[1] = target: T1, STAT4 SH2 domain (Homo sapiens, UniProt Q14765); experiment: Competitive fluorescence polarization (FP) assay, STAT4; details: for IC50: 28 nM STAT4, 10 nM tracer peptide; for Ki: Ki calculated from IC50, mean ± SD, n = 3
T1 sequence (Q14765 1-748): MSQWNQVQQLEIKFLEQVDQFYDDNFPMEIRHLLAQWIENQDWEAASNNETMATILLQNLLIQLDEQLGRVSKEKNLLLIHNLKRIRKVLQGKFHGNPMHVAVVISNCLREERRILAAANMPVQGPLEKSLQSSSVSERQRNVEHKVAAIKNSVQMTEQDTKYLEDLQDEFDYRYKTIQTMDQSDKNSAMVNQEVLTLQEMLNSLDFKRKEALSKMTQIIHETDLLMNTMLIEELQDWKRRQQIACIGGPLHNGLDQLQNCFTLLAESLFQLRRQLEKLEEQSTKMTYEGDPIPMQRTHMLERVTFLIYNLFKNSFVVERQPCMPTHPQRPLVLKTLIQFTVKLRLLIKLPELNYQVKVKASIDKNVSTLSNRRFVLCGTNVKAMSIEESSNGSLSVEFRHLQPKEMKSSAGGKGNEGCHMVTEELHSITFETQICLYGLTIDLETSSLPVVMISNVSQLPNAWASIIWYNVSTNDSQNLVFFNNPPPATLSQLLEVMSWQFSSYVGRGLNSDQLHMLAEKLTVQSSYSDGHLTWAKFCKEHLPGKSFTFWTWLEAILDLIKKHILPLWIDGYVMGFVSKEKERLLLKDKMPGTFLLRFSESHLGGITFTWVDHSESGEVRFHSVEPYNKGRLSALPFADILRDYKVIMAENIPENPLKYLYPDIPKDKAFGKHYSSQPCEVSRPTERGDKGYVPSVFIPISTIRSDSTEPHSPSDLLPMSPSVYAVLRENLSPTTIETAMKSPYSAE
Experimental: (§1) Fluorescence polarization assays
Competitive fluorescence polarization assays were carried as previously described.[1] Proteins […]
fluorescent-labeled peptides were used as tracers: 5-carboxyfluorescein-GpYLPQNID-OH for STAT4; 5-carboxyfluorescein-GpYDKPHVL for STAT1; 5-carboxyfluorescein-GpYLPQTV-NH2 for STAT3; 5-carboxyfluorescein-GpYLVLDKW for STAT5a/b, and 5-carboxyfluorescein- […]
mM Tris (pH 8.0), 50 mM NaCl, 1 mM EDTA, 1 mM DTT, 0.1 % Nonidet P-40 substitute, 2 %
DMSO. Proteins and test compound were incubated for 1 h at room temperature before the […]
(1 picture or pasted object on this page, not shown here) […]
fluorescent-labeled peptide was added. Samples were transferred to 384-well microtiter plates and fluorescence polarization was read after an additional 60 min of incubation time.
Experiments were carried out in triplicate. Percent binding was calculated based on a logarithmic curve fit using OriginPro 8G software. Conversion of IC50 values to Ki-values was achieved using the published equation[2] embedded in the corresponding Excel spread sheet […]
https://websites.umich.edu/~shaomengwanglab/software/calc_ki/ind ex.html.
(§2) Error bars represent standard deviations. […]
(§3) Experiments were carried out in triplicate. […]

[2] = target: T2, STAT1 (Homo sapiens, UniProt P42224); experiment: Competitive fluorescence polarization (FP) assay, STAT1; details: for IC50: 80-92 nM STAT1, 10 nM tracer peptide; for Ki: Ki calculated from IC50, mean ± SD, n = 3
T2 sequence (P42224 1-750): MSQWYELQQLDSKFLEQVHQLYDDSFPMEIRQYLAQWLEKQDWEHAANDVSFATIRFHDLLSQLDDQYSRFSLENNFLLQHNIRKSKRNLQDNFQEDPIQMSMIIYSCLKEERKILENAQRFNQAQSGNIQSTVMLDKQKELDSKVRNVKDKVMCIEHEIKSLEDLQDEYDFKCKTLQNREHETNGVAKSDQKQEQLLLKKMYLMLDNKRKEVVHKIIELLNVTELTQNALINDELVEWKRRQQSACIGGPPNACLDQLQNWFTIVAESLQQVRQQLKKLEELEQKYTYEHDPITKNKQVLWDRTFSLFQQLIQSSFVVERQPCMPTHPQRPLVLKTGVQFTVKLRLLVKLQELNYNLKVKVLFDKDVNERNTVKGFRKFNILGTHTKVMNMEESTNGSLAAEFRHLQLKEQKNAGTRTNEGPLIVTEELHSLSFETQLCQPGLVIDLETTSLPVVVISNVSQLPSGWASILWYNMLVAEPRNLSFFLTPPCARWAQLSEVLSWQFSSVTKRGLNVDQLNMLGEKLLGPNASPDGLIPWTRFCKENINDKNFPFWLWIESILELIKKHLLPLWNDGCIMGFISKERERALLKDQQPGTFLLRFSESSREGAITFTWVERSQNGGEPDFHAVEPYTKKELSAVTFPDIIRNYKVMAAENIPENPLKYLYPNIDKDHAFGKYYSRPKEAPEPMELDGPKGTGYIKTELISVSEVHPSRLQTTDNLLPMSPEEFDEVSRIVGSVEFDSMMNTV
Experimental: as §1
(§4) STAT4; 5-carboxyfluorescein-GpYDKPHVL for STAT1; 5-carboxyfluorescein-GpYLPQTV- […]
(§5) fluorescent-labeled peptide was added. Samples were transferred to 384-well microtiter plates […]
(§6) Experiments were carried out in triplicate. Percent binding was calculated based on a logarithmic curve fit using OriginPro 8G software. Conversion of IC50 values to Ki-values was […]
as §2, §3

[3] = target: T3, STAT5a (Homo sapiens, UniProt P42229); experiment: Competitive fluorescence polarization (FP) assay, STAT5a; details: for IC50: 125-177 nM STAT5a, 10 nM tracer peptide; for Ki: Ki calculated from IC50, mean ± SD, n = 3
T3 sequence (P42229 1-794): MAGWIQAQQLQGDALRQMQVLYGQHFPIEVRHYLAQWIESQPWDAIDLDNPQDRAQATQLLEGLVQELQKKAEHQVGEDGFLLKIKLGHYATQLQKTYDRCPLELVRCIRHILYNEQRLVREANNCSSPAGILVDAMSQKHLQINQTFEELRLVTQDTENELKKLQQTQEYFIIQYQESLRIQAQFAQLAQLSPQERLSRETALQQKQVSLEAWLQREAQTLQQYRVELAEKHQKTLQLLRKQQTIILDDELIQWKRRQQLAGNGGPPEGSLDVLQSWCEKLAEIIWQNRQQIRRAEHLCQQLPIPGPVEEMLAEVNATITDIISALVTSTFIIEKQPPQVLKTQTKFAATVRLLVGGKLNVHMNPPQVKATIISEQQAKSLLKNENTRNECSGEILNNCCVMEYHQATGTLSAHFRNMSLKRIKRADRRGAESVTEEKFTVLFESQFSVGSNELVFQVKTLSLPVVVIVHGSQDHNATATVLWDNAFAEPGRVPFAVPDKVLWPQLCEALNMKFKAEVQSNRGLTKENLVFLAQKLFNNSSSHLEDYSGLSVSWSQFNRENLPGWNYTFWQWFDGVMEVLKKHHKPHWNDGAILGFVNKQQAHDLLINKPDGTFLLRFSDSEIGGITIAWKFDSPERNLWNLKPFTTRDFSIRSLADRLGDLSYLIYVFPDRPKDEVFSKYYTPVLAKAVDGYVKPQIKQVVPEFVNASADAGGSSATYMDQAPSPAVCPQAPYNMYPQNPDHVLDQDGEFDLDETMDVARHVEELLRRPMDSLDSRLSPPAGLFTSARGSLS
Experimental: as §1, §4, §5, §6, §2, §3

Row | SMILES | IC50 [1] [µM] | Ki [1] [µM] | IC50 [2] [µM] | Ki [2] [µM] | IC50 [3] [µM] | Ki [3] [µM]
1 | O=P(O)(O)Oc1ccc(-c2ccsc2)cc1 [8a] | 1.2 | 0.56 ± 0.06 | 20.2 | 9.2 ± 1 | 41 | 20 ± 0.2
2 | O=P(O)(O)Oc1ccc(-c2cccs2)cc1 [8b] | 1.09 | 0.5 ± 0.03 | 19.5 | 8.9 ± 0.5 | 14.8 | 7.3 ± 0.9
3 | O=P(O)(O)Oc1ccc(-c2nccs2)cc1 [8c] | 8.8 | 4.1 ± 0.2 | 83 | 38 ± 3 | 122 | 61 ± 3
4 | Cc1cc(-c2ccc(OP(=O)(O)O)c(F)c2)cs1 [8f] | 0.37 | 0.18 ± 0.03 | 9 | 4.4 ± 0.4 | 28 | 14 ± 1
5 | O=P(O)(O)Oc1ccc2c(c1)Cc1ccccc1-2 [compound 11] | 1.52 | 0.61 ± 0.03 | 14.3 | 6.5 ± 0.2 | 43 | 21 ± 1
6 | O=P(O)(O)Oc1ccc2c(c1)oc1ccccc12 [compound 12] | 1.78 | 0.71 ± 0.08 | 34.3 | 16 ± 1 | 55 | 27 ± 1
